# Experimental data as given in the supplement of paper PMC10307832.
# What was measured:
# Test in all cases: relative viability (nuclei count vs DMSO), 5 days (fraction); higher = more cells survive
# [1] = system: PC-14
# Outline: (§1)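 Lung cancer cell lines in 1536-well plates got either a single drug or a fixed anchor-drug dose together with five library-drug doses (not always all listed) in √10 steps, by pin tool, on the day after seeding. Nuclei were counted after 5 days, and relative viability is the treated-to-vehicle ratio of nuclei counts. Values are medians of duplicate plates.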
# [2] = system: NCI-H1792
# Outline: as §1
# [3] = system: NCI-H596
# Outline: as §1
# [4] = system: NCI-H441
# Outline: as §1
# [5] = system: NCI-H2347
# Outline: as §1
# [6] = system: NCI-H1355
# Outline: as §1
# [7] = system: RERF-LC-KJ
# Outline: as §1
# [8] = system: LCLC-103H
# Outline: as §1
# [9] = system: NCI-H727
# Outline: as §1
# [10] = system: NCI-H1915
# Outline: as §1
# [11] = system: NCI-H322M
# Outline: as §1
# [12] = system: NCI-H650
# Outline: as §1
# [13] = system: NCI-H3122
# Outline: as §1
# [14] = system: NCI-H1563
# Outline: as §1
# [15] = system: NCI-H460
# Outline: as §1
# [16] = system: NCI-H1651
# Outline: as §1
# [17] = system: NCI-H2170
# Outline: as §1
# [18] = system: NCI-H1755
# Outline: as §1
# [19] = system: SK-MES-1
# Outline: as §1
# [20] = system: NCI-H661
# Outline: as §1
# [21] = system: SW 900
# Outline: as §1
# [22] = system: LXF-289
# Outline: as §1
# [23] = system: NCI-H522
# Outline: as §1
# [24] = system: NCI-H520
# Outline: as §1
smiles,measurement,setting,value
C[C@@H]1CN(CC(=O)Nc2ccc3c(c2)Cc2cccc(-c4cc(=O)cc(N5CCOCC5)o4)c2S3)C[C@H](C)O1 + Cc1nc(Nc2ncc(C(=O)Nc3c(C)cccc3Cl)s2)cc(N2CCN(CCO)CC2)n1 [Dasatinib] (partner 0.075 µM),relative viability,[1]; first compound 0.04 µM,0.286
same,relative viability,[1]; first compound 0.1265 µM,0.254
same,relative viability,[1]; first compound 0.4 µM,0.314
same,relative viability,[1]; first compound 4 µM,0.147
same,relative viability,[2]; first compound 0.04 µM,0.74
same,relative viability,[2]; first compound 0.1265 µM,0.684
same,relative viability,[2]; first compound 0.4 µM,0.788
same,relative viability,[2]; first compound 4 µM,0.72
same,relative viability,[3]; first compound 0.04 µM,0.568
same,relative viability,[3]; first compound 0.1265 µM,0.512
same,relative viability,[3]; first compound 0.4 µM,0.572
same,relative viability,[3]; first compound 4 µM,0.484
same,relative viability,[4]; first compound 0.04 µM,0.762
same,relative viability,[4]; first compound 0.1265 µM,0.46
same,relative viability,[4]; first compound 0.4 µM,0.62
same,relative viability,[4]; first compound 4 µM,0.538
same,relative viability,[5]; first compound 0.04 µM,0.329
same,relative viability,[5]; first compound 0.1265 µM,0.39
same,relative viability,[5]; first compound 0.4 µM,0.248
same,relative viability,[5]; first compound 4 µM,0.337
same,relative viability,[6]; first compound 0.04 µM,0.639
same,relative viability,[6]; first compound 0.1265 µM,0.723
same,relative viability,[6]; first compound 0.4 µM,0.604
same,relative viability,[6]; first compound 4 µM,0.646
same,relative viability,[7]; first compound 0.04 µM,0.877
same,relative viability,[7]; first compound 0.1265 µM,0.813
same,relative viability,[7]; first compound 0.4 µM,0.782
same,relative viability,[7]; first compound 4 µM,0.665
same,relative viability,[8]; first compound 0.04 µM,0.451
same,relative viability,[8]; first compound 0.1265 µM,0.436
same,relative viability,[8]; first compound 0.4 µM,0.405
same,relative viability,[8]; first compound 4 µM,0.419
same,relative viability,[9]; first compound 0.04 µM,0.361
same,relative viability,[9]; first compound 0.1265 µM,0.368
same,relative viability,[9]; first compound 0.4 µM,0.378
same,relative viability,[9]; first compound 4 µM,0.286
same,relative viability,[10]; first compound 0.04 µM,0.307
same,relative viability,[10]; first compound 0.1265 µM,0.308
same,relative viability,[10]; first compound 0.4 µM,0.319
same,relative viability,[10]; first compound 4 µM,0.278
same,relative viability,[11]; first compound 0.04 µM,0.277
same,relative viability,[11]; first compound 0.1265 µM,0.262
same,relative viability,[11]; first compound 0.4 µM,0.26
same,relative viability,[11]; first compound 4 µM,0.24
same,relative viability,[12]; first compound 0.04 µM,0.45
same,relative viability,[12]; first compound 0.1265 µM,0.445
same,relative viability,[12]; first compound 0.4 µM,0.359
same,relative viability,[12]; first compound 4 µM,0.384
same,relative viability,[13]; first compound 0.04 µM,0.797
same,relative viability,[13]; first compound 0.1265 µM,0.838
same,relative viability,[13]; first compound 0.4 µM,0.827
same,relative viability,[13]; first compound 4 µM,0.844
same,relative viability,[14]; first compound 0.04 µM,0.433
same,relative viability,[14]; first compound 0.1265 µM,0.429
same,relative viability,[14]; first compound 0.4 µM,0.445
same,relative viability,[14]; first compound 4 µM,0.433
same,relative viability,[15]; first compound 0.04 µM,0.606
same,relative viability,[15]; first compound 0.1265 µM,0.484
same,relative viability,[15]; first compound 0.4 µM,0.427
same,relative viability,[15]; first compound 4 µM,0.339
same,relative viability,[16]; first compound 0.04 µM,0.47
same,relative viability,[16]; first compound 0.1265 µM,0.411
same,relative viability,[16]; first compound 0.4 µM,0.478
same,relative viability,[16]; first compound 4 µM,0.348
same,relative viability,[17]; first compound 0.04 µM,0.569
same,relative viability,[17]; first compound 0.1265 µM,0.581
same,relative viability,[17]; first compound 0.4 µM,0.711
same,relative viability,[17]; first compound 4 µM,0.57
same,relative viability,[18]; first compound 0.04 µM,0.455
same,relative viability,[18]; first compound 0.1265 µM,0.397
same,relative viability,[18]; first compound 0.4 µM,0.427
same,relative viability,[18]; first compound 4 µM,0.37
same,relative viability,[19]; first compound 0.04 µM,0.444
same,relative viability,[19]; first compound 0.1265 µM,0.353
same,relative viability,[19]; first compound 0.4 µM,0.398
same,relative viability,[19]; first compound 4 µM,0.263
same,relative viability,[20]; first compound 0.04 µM,0.919
same,relative viability,[20]; first compound 0.1265 µM,0.881
same,relative viability,[20]; first compound 0.4 µM,0.968
same,relative viability,[20]; first compound 4 µM,0.797
same,relative viability,[21]; first compound 0.04 µM,0.509
same,relative viability,[21]; first compound 0.1265 µM,0.801
same,relative viability,[21]; first compound 0.4 µM,0.66
same,relative viability,[21]; first compound 4 µM,0.375
same,relative viability,[22]; first compound 0.04 µM,0.185
same,relative viability,[22]; first compound 0.1265 µM,0.223
same,relative viability,[22]; first compound 0.4 µM,0.203
same,relative viability,[22]; first compound 4 µM,0.232
same,relative viability,[23]; first compound 0.04 µM,0.775
same,relative viability,[23]; first compound 0.1265 µM,0.773
same,relative viability,[23]; first compound 0.4 µM,0.806
same,relative viability,[23]; first compound 4 µM,0.828
same,relative viability,[24]; first compound 0.04 µM,0.216
same,relative viability,[24]; first compound 0.1265 µM,0.227
same,relative viability,[24]; first compound 0.4 µM,0.248
same,relative viability,[24]; first compound 4 µM,0.136
CC(C)Oc1cc(Nc2nc(N[C@@H](C)c3ccc(F)cn3)ncc2Cl)n[nH]1 [AZ23] + N=C(N)NC(=N)NCCc1ccccc1 [Phenformin] (partner 250 µM),relative viability,[1]; first compound 0.03162 µM,0.781
same,relative viability,[1]; first compound 0.3162 µM,0.703
same,relative viability,[2]; first compound 0.03162 µM,0.397
same,relative viability,[2]; first compound 0.3162 µM,0.239
same,relative viability,[3]; first compound 0.01 µM,0.787
same,relative viability,[3]; first compound 0.03162 µM,0.87
same,relative viability,[3]; first compound 0.3162 µM,0.739
same,relative viability,[4]; first compound 0.01 µM,0.865
same,relative viability,[4]; first compound 0.03162 µM,0.841
same,relative viability,[4]; first compound 0.3162 µM,0.906
same,relative viability,[5]; first compound 0.01 µM,0.341
same,relative viability,[5]; first compound 0.03162 µM,0.333
same,relative viability,[5]; first compound 0.3162 µM,0.455
same,relative viability,[6]; first compound 0.01 µM,0.462
same,relative viability,[6]; first compound 0.03162 µM,0.483
same,relative viability,[6]; first compound 0.3162 µM,0.455
same,relative viability,[7]; first compound 0.01 µM,0.455
same,relative viability,[7]; first compound 0.03162 µM,0.457
same,relative viability,[7]; first compound 0.3162 µM,0.463
same,relative viability,[8]; first compound 0.01 µM,0.339
same,relative viability,[8]; first compound 0.03162 µM,0.352
same,relative viability,[8]; first compound 0.3162 µM,0.333
same,relative viability,[9]; first compound 0.01 µM,0.571
same,relative viability,[9]; first compound 0.03162 µM,0.552
same,relative viability,[9]; first compound 0.3162 µM,0.485
same,relative viability,[10]; first compound 0.01 µM,0.4
same,relative viability,[10]; first compound 0.03162 µM,0.373
same,relative viability,[10]; first compound 0.3162 µM,0.372
same,relative viability,[11]; first compound 0.03162 µM,0.903
same,relative viability,[11]; first compound 0.3162 µM,0.785
same,relative viability,[12]; first compound 0.01 µM,0.432
same,relative viability,[12]; first compound 0.03162 µM,0.461
same,relative viability,[12]; first compound 0.3162 µM,0.466
same,relative viability,[13]; first compound 0.01 µM,0.387
same,relative viability,[13]; first compound 0.03162 µM,0.439
same,relative viability,[13]; first compound 0.3162 µM,0.373
same,relative viability,[14]; first compound 0.01 µM,0.708
same,relative viability,[14]; first compound 0.03162 µM,0.653
same,relative viability,[14]; first compound 0.3162 µM,0.707
same,relative viability,[15]; first compound 0.01 µM,0.335
same,relative viability,[15]; first compound 0.03162 µM,0.601
same,relative viability,[15]; first compound 0.3162 µM,0.549
same,relative viability,[16]; first compound 0.03162 µM,0.332
same,relative viability,[16]; first compound 0.3162 µM,0.356
same,relative viability,[17]; first compound 0.01 µM,0.463
same,relative viability,[17]; first compound 0.03162 µM,0.424
same,relative viability,[17]; first compound 0.3162 µM,0.489
same,relative viability,[18]; first compound 0.01 µM,0.689
same,relative viability,[18]; first compound 0.03162 µM,0.651
same,relative viability,[18]; first compound 0.3162 µM,0.673
same,relative viability,[19]; first compound 0.03162 µM,0.743
same,relative viability,[19]; first compound 0.3162 µM,0.743
same,relative viability,[20]; first compound 0.01 µM,0.293
same,relative viability,[20]; first compound 0.03162 µM,0.257
same,relative viability,[20]; first compound 0.3162 µM,0.241
same,relative viability,[21]; first compound 0.01 µM,0.734
same,relative viability,[21]; first compound 0.03162 µM,0.879
same,relative viability,[21]; first compound 0.3162 µM,0.799
same,relative viability,[22]; first compound 0.01 µM,0.591
same,relative viability,[22]; first compound 0.03162 µM,0.512
same,relative viability,[22]; first compound 0.3162 µM,0.533
same,relative viability,[23]; first compound 0.01 µM,0.711
same,relative viability,[23]; first compound 0.03162 µM,0.662
same,relative viability,[23]; first compound 0.3162 µM,0.656
same,relative viability,[24]; first compound 0.01 µM,0.508
same,relative viability,[24]; first compound 0.03162 µM,0.643
same,relative viability,[24]; first compound 0.3162 µM,0.23
